# “Also recorded” adds a separate entry of the source.
# What was measured:
# HCoV OC43 virus = assay: Inhibition against HCoV OC43 virus replication; assay type: cell-based, human coronavirus HCoV OC43; details: for EC50: Betacoronavirus 1, OC43
# [1] = target: novel coronavirus envelope protein (2-E) ion channel (Severe acute respiratory syndrome coronavirus 2, UniProt P0DTC4); assay: Novel coronavirus envelope protein (2-E) ion channel activity test, planar lipid bilayer (BLM); assay type: biochemical, SARS-CoV-2; details: room temperature, 1, 10, 50, 100 μM, read-out: Inhibition against 2-E ion channels IC50
# Chain of novel coronavirus envelope protein (2-E) ion channel (P0DTC4 whole entry, looked up): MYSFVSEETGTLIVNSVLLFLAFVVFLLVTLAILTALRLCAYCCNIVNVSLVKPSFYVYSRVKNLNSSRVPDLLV
# [2] = Cytotoxicity test on Vero E6 cells (CCK8); assay type: cell-based; details: African green monkey; Vero E6 cells, CCK8 kit
# Protocol: (§1) In this embodiment, the half toxicity concentration of each embodiment on Vero E6 cells was determined by CCK8 kit analysis (CC50).
# Vero E6 cells = assay: Cytotoxicity test on Vero E6 cells (CCK8); assay type: cell-based; details: Vero E6 cells
# Protocol: as §1
# Raw 264.7 cells [3] = assay: Cell viability in LPS-induced inflammation model of Raw 264.7 cells (CCK-8); assay type: cell-based; details: 1 μg/ml LPS, 1 μM compound, 16 hours
# Protocol: In this example, the effect of the compounds of the present invention on the inflammation level of the LPS-induced inflammation model of Raw 264.7 cells was analyzed by cell viability in combination with inflammatory factors; cell viability was analyzed by CCK-8 assay; and mRNA expression levels of inflammation-related indicators were detected by a real-time quantitative PCR (Q-PCR) method. Raw 264.7 cells were purchased from ATCC; CCK-8 kit was purchased from Meilunbio, item no. MA0218-3; LPS was purchased from Sigma, item no. L2630.
# (§2) Experimental methods: first, 8000 cells/well Raw 264.7 cells were placed in 96-well plates and incubated overnight. On the second day, 0.1% DMSO was added to the control cells, 1 μg/ml LPS as well as 0.1% DMSO was added to the model group, 1 μg/ml LPS as well as 1 μM of the compounds (oxyacanthine hydrochloride (oxy), 1, 2, tetrandrine (tet), 3, 4, 6, 58) was added to the treatment group, and the 96-well plates were sterilized and incubated in a constant temperature incubator for 16 hours. Finally, the viability of the cells was detected using the CCK-8 kit.
# Raw 264.7 cells [4] = assay: Cell viability in TNF-α induced inflammation model of Raw 264.7 cells (CCK-8); assay type: cell-based; details: 10 ng/ml TNF-α, 1 μM compound, 16 hours
# Protocol: (§3) In this embodiment, the effect of compounds on TNF-α-induced inflammation levels in Raw 264.7 cells was analyzed by cell viability combined with inflammatory factor expression levels; cell viability was analyzed by CCK-8 assay; and mRNA expression levels of inflammation-associated indicators were detected by real-time quantitative PCR (Q-PCR) method. Raw 264.7 cells were purchased from ATCC, CCK-8 kit was purchased from Meilunbio, item number MA0218-3, TNF-α was purchased from Merck, item no. GF314.
# as §2, with “10 ng/ml TNF-α” for “1 μg/ml LPS”
# [5] = tested on: inflammatory factor mRNA in Raw 264.7 cells; assay: mRNA levels of inflammatory indicators in TNF-α-induced inflammation model of Raw264.7 cells (Q-PCR); assay type: cell-based; details: 10 ng/ml TNF-α, 1 μM compound, 16 hours
# Protocol: as §3
# as §2, with “5*10^4” for “8000”, “12-well” for “96-well”, “10 ng/ml TNF-α” for “1 μg/ml LPS”, “Cellular mRNA was extracted by lysis using Trizol (Yisheng, 10606ES60) and detected by real-time quantitative PCR after reverse transcription,” for “Finally,”, “primers are” for “viability of”, “same as in Table 2.” for “cells was detected using the CCK-8 kit.”
# ALM12 hepatocytes = assay: Anti H2O2-induced necrotic injury assay in ALM12 hepatocytes (microscopy, CCK-8); assay type: cell-based; details: 2 mM H2O2, 1 μM compound, 3 hours, microscope and CCK-8
# Protocol: In this example, the effect of the compounds of the present invention on the level of necrotic injury induced by H2O2 in ALM12 hepatocytes was analyzed by microscopic morphological observations, cell viability in combination with cell death-associated molecules. Cell viability was analyzed by CCK-8 assay. ALM12 cells were cultured in 1640 medium (gibco, c11995500BT)+10% FBS (gibco, 10099141C) in a constant temperature incubator at 37° C., 5% CO2; the CCK-8 kit was purchased from Meilunbio, item no. MA0218-3; H2O2 was purchased from Sinopharm Chemical Reagent Co. item no. 10011208.
# Experimental methods: first, 8000 cells/well ALM12 cells were placed in 96-well plates and incubated overnight. On the second day, 0.1% DMSO was added to the control cells, 2 mM H2O2 as well as 0.1% DMSO was added to the model group, 2 mM H2O2 as well as 1 μM of the compounds (oxy, 1, 2, tet, 3, 4, 6, 58) was added to the treatment group, and the 96-well plates were sterilized and incubated in a constant temperature incubator for 3 hours. Finally, cell injury and growth were observed using a microscope; the viability of the cells was detected by CCK-8 kit.
# hNav1.5 sodium channel = hNav1.5 sodium channel (Homo sapiens, UniProt Q14524); assay: Nav1.5 sodium channel whole-cell membrane clamp in CHL cells
# Chain of hNav1.5 sodium channel (Q14524 whole entry): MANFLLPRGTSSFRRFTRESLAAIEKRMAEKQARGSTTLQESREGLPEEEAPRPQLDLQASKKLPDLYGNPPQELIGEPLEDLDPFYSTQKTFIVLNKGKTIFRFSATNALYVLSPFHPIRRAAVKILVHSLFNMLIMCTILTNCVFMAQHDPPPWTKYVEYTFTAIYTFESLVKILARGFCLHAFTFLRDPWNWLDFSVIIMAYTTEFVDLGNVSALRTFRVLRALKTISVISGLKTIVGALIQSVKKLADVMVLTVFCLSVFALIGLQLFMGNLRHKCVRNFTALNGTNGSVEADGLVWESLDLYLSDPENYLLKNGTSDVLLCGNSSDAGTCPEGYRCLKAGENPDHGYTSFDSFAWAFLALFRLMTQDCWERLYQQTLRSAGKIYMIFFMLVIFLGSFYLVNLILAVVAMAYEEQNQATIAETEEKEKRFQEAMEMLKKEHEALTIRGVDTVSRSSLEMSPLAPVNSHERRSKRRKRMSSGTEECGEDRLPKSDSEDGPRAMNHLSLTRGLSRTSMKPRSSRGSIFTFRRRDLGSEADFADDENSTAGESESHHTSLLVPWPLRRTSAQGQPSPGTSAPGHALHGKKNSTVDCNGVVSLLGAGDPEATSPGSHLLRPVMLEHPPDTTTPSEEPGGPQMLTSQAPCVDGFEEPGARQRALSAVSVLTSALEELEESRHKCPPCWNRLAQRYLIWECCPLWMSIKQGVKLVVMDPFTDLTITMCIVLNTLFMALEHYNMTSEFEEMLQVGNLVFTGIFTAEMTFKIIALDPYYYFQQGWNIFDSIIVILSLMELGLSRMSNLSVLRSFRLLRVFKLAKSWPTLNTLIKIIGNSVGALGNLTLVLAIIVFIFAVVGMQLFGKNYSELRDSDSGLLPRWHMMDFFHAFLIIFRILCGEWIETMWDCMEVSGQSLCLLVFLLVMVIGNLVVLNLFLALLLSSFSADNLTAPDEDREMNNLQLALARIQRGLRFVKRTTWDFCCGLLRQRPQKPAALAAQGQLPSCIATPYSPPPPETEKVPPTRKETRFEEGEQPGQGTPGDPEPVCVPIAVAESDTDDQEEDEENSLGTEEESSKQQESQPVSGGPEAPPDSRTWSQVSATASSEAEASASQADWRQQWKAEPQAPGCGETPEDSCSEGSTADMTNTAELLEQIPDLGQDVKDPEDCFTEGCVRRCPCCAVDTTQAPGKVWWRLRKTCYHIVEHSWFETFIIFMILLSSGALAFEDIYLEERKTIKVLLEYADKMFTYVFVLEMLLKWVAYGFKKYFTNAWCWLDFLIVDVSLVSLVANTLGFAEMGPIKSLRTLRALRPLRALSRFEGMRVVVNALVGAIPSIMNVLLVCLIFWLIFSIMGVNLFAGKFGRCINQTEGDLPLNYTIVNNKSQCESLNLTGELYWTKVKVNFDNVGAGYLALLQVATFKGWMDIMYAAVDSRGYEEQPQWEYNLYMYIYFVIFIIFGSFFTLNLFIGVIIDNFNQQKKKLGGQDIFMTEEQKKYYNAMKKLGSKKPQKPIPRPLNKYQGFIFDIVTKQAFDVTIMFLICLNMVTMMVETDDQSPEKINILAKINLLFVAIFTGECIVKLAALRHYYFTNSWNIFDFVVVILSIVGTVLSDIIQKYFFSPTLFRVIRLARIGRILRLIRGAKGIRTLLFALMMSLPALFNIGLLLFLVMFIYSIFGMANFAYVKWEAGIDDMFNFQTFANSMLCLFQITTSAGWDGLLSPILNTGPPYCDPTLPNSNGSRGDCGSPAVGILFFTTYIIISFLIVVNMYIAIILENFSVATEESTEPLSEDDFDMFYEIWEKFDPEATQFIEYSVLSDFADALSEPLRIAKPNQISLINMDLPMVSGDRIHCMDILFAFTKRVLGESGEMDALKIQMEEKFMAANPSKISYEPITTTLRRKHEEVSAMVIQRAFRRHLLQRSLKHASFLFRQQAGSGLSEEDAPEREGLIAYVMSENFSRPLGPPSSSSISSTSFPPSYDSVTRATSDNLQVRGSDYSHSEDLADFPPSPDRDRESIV
# Text: Nav1.5: CHL cells stably expressing hNav1.5 sodium channel was used to record hNav1.5 sodium channel currents by whole-cell membrane clamp technique at room temperature. The glass microelectrodes were made from glass electrode blanks (BF150-86-10, Sutter) by pulling through a puller, and the tip resistance was about 2-5 MΩ after filling the electrode with internal fluid, and the glass microelectrodes were connected to Axopatch 200B (Molecular Devices) membrane clamp amplifier by inserting the glass microelectrodes into the amplifier probe. Clamp voltage and data recording were controlled and recorded by pClamp 10 software via a computer with a sampling frequency of 10 kHz and a filtering frequency of 2 kHz. After obtaining whole-cell recordings, the cells were clamped at −80 mV, given a hyperpolarizing voltage of 200 ms to −120 mV, and then depolarized to −20 mV for 20 ms to evoke a Nav1.5 current. This voltage stimulus was given every 10 s; after the hNav1.5 sodium current was determined to be stabilized (for at least 1 min), begins the dosing process. Concentrations of the sample to be tested were administered continuously starting from low test concentration, and each test concentration was given for 1 min to reach steady state of action or for a maximum of 3 min. A minimum of 3 cells (n≥3) were tested at each concentration of the sample to be tested, and a minimum of 2 cells (n≥2) were tested at each concentration of the positive control.
# Extracellular fluid formulation (mM): 140 NaCl, 5 KCl, 1 CaCl2, 1.25 MgCl2, 10 HEPES and 10 Glucose, adjusting the pH to 7.4 with NaOH.
# Intracellular fluid formulation (mM): 130 CsF, 10 NaCl, 10 EGTA and 10 HEPES, adjusting the pH to 7.2 with CsOH.
# [6] = tested on: Th1/Th17 differentiation of CD4+T cells; assay: CD4+T cell in vitro differentiation assay (Th1 IFN-γ / Th17 IL-17A, flow cytometry); design: inhibitory effect on Th1/Th17 differentiation at lower concentration: dose or concentration left out as unconfirmed; details: 72 h; for inhibitory effect on Th1/Th17 differentiation: 10 μM, IFN-γ/IL-17A by flow cytometry
# Protocol: CD4^+T cell isolation: CD4^+T cells were isolated from the spleens of 7-8 week old C57BL/6 mice using the Mouse CD4^+T Cell Sorting Kit (Dynabeads® Untouched™ Mouse CD4 Cells Isolation Kit, Invitrogen, Catalog nos: 11415D).
# In vitro differentiation of CD4^+T cells: the isolated CD4^+T cells were inoculated into 96-well plates while different concentrations of compounds were added, and then corresponding cytokines and antibodies were added: anti-CD28 (2 μg/ml), anti-CD3 (2 μg/ml), Anti-IL-4 (10 μg/ml), IL-12 (10 ng/ml), Anti-IFN-γ (10 μg/ml), anti-IL-4 (10 μg/ml), IL-6 (30 ng/ml), TGF-β1 (3 ng/ml), IL-10 (10 ng/ml), IL-23 (10 ng/ml), and TNF-α (10 ng/ml). Cells were cultured in 5% CO2 at 37° C. in a cell culture chamber for 72 h. Cells were collected, stained intracellularly, analyzed by flow cytometry, and tested for IFN-γ/IL-17A content to assess the effect of compounds on CD4^+T differentiation into Th1/Th17 in vitro.
SMILES,inhibition against human coronavirus HCoV OC43 (HCoV OC43 virus),EC50 (HCoV OC43 virus),IC50 [1],IC50 [2],cytotoxicity on Vero E6 cells compared with oxyacanthine hydrochloride (Vero E6 cells),cell viability in LPS-induced inflammation model (Raw 264.7 cells [3]),cell viability in TNF-α-induced inflammation model (Raw 264.7 cells [4]),inhibition of inflammatory factors (mRNA) in TNF-α-induced inflammation model [5],alleviation of H2O2-induced ALM12 hepatocyte injury (ALM12 hepatocytes),IC50 (hNav1.5 sodium channel),inhibitory effect on Th1/Th17 differentiation [6],inhibitory effect on Th1/Th17 differentiation at lower concentration [6],activity against Nav1.5 channels (hNav1.5 sodium channel)
CCCCNC(=O)Oc1ccc2cc1Oc1ccc(cc1)C[C@H]1c3c(cc(OC)c(OC)c3Oc3cc4c(cc3OC)CCN(C)[C@@H]4C2)CCN1C [Compound 2],strong inhibition,1.2 µM,< 10 µM,30 to 50 µM,weaker cytotoxicity than oxyacanthine hydrochloride,did not affect cell viability,did not affect cell viability,significantly inhibited inflammatory factors; also recorded: significant inhibition,significantly alleviated,> 10 µM,strong inhibitory effect,strong inhibitory effect,–
COc1cc2c3cc1Oc1c(OC)c(OC)cc4c1[C@H](Cc1ccc(cc1)Oc1cc(ccc1C(N)=O)C[C@H]3N(C)CC2)N(C)CC4 [Compound 4],strong inhibition,5 µM,< 1 µM,> 50 µM,weaker cytotoxicity than oxyacanthine hydrochloride,did not affect cell viability,did not affect cell viability,significantly inhibited inflammatory factors; also recorded: significant inhibition,significantly alleviated,> 50 µM,strong inhibitory effect,–,weakly active

# Source: US20250296937A1, “CYCLIC BISBENZYL TETRAHYDROISOQUINOLINE COMPOUND, AND PREPARATION METHOD THEREFOR AND USE THEREOF” (Shanghai Institute of Materia Medica, Chinesse Academy of …, priority 2021, published 2025)
